In patent US12514938B2, “Fibroblast activation protein targeting peptides” (PERSPECTIVE THERAPEUTICS, INC., priority 2023, dated 2026):
*1 amine or outer side, *2 acyl side, *3 side chain or, on linkers, in order; H or OH if unused. Where a SMILES comes first, the peptide text is derived from it. Bridges are numbered along the chain shown (N, C = ends). [ ]: non-standard residue; d: D form. The star is where a group is joined. X2 = NC(=O)CN1CCN(CC(=O)O)CCN(CC(=O)NCCOCCOCCC(=O)NCCSCc2cc(C[*:1])cc(C[*:2])c2)CCN(CC(=O)O)CC1; X1 = NC(=O)CN1CCN(CC(=O)O)CCN(CC(=O)*)CCN(CC(=O)O)CC1; NOTA = O=C(O)CN1CCN(CC(=O)O)CCN(CC(=O)*)CC1; oXylylene = c1ccc(C[*:2])c(C[*:1])c1; Bta = N[C@@H](Cc1csc2ccccc12)C(=O)O; pXylylene = c1cc(C[*:2])ccc1C[*:1]; PEG2 = NCCOCCOCCC(=O)O

Biological target: T1, Human Fibroblast Activation Protein (FAP) (Homo sapiens, UniProt Q12884)
T1 sequence (Q12884 1-760): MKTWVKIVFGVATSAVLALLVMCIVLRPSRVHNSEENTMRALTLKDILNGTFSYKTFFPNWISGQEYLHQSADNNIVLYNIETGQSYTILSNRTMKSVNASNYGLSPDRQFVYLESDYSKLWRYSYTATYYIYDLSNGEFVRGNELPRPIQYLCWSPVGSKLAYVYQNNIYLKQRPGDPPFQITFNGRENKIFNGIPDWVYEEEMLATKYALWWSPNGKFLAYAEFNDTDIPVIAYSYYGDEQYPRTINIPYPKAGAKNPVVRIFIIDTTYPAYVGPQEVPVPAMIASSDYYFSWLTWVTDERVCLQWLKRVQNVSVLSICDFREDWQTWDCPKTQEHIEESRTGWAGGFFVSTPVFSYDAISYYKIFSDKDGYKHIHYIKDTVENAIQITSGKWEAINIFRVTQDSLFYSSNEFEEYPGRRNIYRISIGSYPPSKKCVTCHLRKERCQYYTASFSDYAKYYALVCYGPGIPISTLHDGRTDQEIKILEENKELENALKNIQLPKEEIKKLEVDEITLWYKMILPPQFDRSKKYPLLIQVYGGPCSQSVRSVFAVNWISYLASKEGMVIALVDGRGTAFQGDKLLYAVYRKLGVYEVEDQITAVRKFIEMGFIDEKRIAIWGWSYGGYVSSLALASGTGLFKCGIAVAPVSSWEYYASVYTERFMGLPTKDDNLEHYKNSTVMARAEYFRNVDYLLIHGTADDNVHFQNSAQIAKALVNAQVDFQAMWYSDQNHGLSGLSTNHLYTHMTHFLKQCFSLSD
Assay: Enzyme inhibition assay against human FAP (substrate Z-GP-AMC), Example 1
Type: biochemical
Conditions: human FAP 5 ng/well, 50 μM Z-GP-AMC; Ki from IC50 by Cheng-Prusoff
Method: Binding Affinity Against Human Fibroblast Activation Protein (FAP)
An enzyme inhibition assay was performed to determine IC50 values and then the Cheng-Prusoff equation used to calculate the Ki given a known Km of the substrate Z-GP-AMC for FAP. To perform the assay, FAP (5 ng/well) and the test peptide at varying concentrations (i.e. 10^−6 to 10^−12) were incubated in a black 96-well plate for 10 minutes at RT on a shaker plate. Then, the substrate Z-GP-AMC was added to give a final concentration of 50 μM. The total reaction volume per well was 100 μL The reaction was allowed to incubate at RT on a shaker plate for 1 hour protected from light, and then fluorescence read with a BioTek Synergy LX plate reader at an ex/em (360/40 and 460/40). Experiments were performed in at least duplicate, and controls of buffer only, buffer and FAP enzyme, and buffer with substrate and FAP enzyme only were included for comparison. The buffer used for the assay was 50 mM Tris-HCl, 1M NaCl, and 1 mg/mL BSA, pH=7.5. Data was plotted in GraphPad Prism and non-linear regression used to calculate IC50 values. The compounds tested and Ki values of each were as follows: […]

Ki	Compound
31.4 nM	C[C@@H](O)[C@@H]1NC(=O)[C@@H](NC(=O)CCOCCOCCNC(=O)CN2CCN(CC(=O)O)CCN(CC(N)=O)CCN(CC(=O)O)CC2)CSCc2ccccc2CSC[C@@H](C(=O)O)NC(=O)[C@H](Cc2c[nH]c3ccccc23)NC(=O)[C@H](Cc2c[nH]c3ccccc23)NC(=O)[C@H](CCC(N)=O)NC(=O)[C@H](CCC(=O)O)NC(=O)[C@H](Cc2c[nH]c3ccccc23)NC(=O)[C@@H]2CCCN2C1=O [VMT-FAP-2-76, PSC-PEG2-[C(oXdB)TPWEQWWC]-COOH] ({X1-PEG2}-CTPWEQWWC-OH; linker 1-9 via oXylylene)
0.3 nM	C[C@@H](O)[C@@H]1NC(=O)[C@@H](NC(=O)[C@H](CO)NC(=O)CCOCCOCCNC(=O)CN2CCN(CC(=O)O)CCN(CC(N)=O)CCN(CC(=O)O)CC2)CSCc2ccccc2CSC[C@@H](C(N)=O)NC(=O)[C@H](Cc2c[nH]c3ccccc23)NC(=O)[C@H](Cc2c[nH]c3ccccc23)NC(=O)[C@H](CCC(N)=O)NC(=O)[C@H](CCC(=O)O)NC(=O)[C@H](Cc2csc3ccccc23)NC(=O)[C@@H]2CCCN2C1=O [VMT-FAP-2-61, PCS-PEG2-S-[C(oXdB)TPBtaEQWWC]-NH2] ({X1-PEG2}-SCTP[Bta]EQWWC-NH2; linker 2-10 via oXylylene)
2.68 nM	C[C@@H](O)[C@@H]1NC(=O)[C@@H](NC(=O)CCOCCOCCNC(=O)CN2CCN(CC(=O)O)CCN(CC(N)=O)CCN(CC(=O)O)CC2)CSCc2ccc(cc2)CSC[C@@H](C(N)=O)NC(=O)[C@H](Cc2c[nH]c3ccccc23)NC(=O)[C@H](Cc2c[nH]c3ccccc23)NC(=O)[C@H](CCC(N)=O)NC(=O)[C@H](CCC(=O)O)NC(=O)[C@H](Cc2c[nH]c3ccccc23)NC(=O)[C@@H]2CCCN2C1=O [VMT-FAP-2-82, PSC-PEG2-[C(pXdB)TPWEQWWC]-NH2] ({X1-PEG2}-CTPWEQWWC-NH2; linker 1-9 via pXylylene)
0.01 nM	C[C@@H](O)[C@@H]1NC(=O)[C@@H](NC(=O)CCOCCOCCNC(=O)CN2CCN(CC(=O)O)CCN(CC(=O)O)CC2)CSCc2ccccc2CSC[C@@H](C(N)=O)NC(=O)[C@H](Cc2c[nH]c3ccccc23)NC(=O)[C@H](Cc2c[nH]c3ccccc23)NC(=O)[C@H](CCC(N)=O)NC(=O)[C@H](CCC(=O)O)NC(=O)[C@H](Cc2c[nH]c3ccccc23)NC(=O)[C@@H]2CCCN2C1=O [VMT-FAP-2-78, NOTA-PEG2-[C(oXdB)TPWEQWWC]-NH2] ({NOTA-PEG2}-CTPWEQWWC-NH2; linker 1-9 via oXylylene)

Continued, compound first:

Compound	Ki
CC(=O)N[C@@H](CO)C(=O)N[C@H]1CSCc2ccccc2CSC[C@@H](C(N)=O)NC(=O)[C@H](Cc2c[nH]c3ccccc23)NC(=O)[C@H](Cc2c[nH]c3ccccc23)NC(=O)[C@H](CCC(=O)O)NC(=O)[C@H](CCC(=O)O)NC(=O)[C@H](Cc2ccccc2)NC(=O)[C@@H]2CCCN2C(=O)[C@H]([C@@H](C)O)NC1=O [VMT-FAP-1-105, Ac-S[C(oXdB)TPFEEWWC]-NH2] (Ac-SCTPFEEWWC-NH2; linker 2-10 via oXylylene)	0.38 nM
CC(=O)N[C@H]1CSCc2cc(CSCCNC(=O)CCOCCOCCNC(=O)CN3CCN(CC(=O)O)CCN(CC(N)=O)CCN(CC(=O)O)CC3)cc(c2)CSC[C@@H](C(N)=O)NC(=O)[C@H](Cc2c[nH]c3ccccc23)NC(=O)[C@H](Cc2c[nH]c3ccccc23)NC(=O)[C@H](CCC(N)=O)NC(=O)[C@H](CCC(=O)O)NC(=O)[C@H](Cc2c[nH]c3ccccc23)NC(=O)[C@@H]2CCCN2C(=O)[C@H]([C@@H](C)O)NC1=O [VMT-FAP-2-51, Ac-[C(mXtB(CA-PEG2-PSC))TPWEQWWC]-NH2] (Ac-CTPWEQWWC-NH2; linker 1-9 via X2)	0.28 nM
PSC-Bn-NCS-PEG2-[C(oXdB)TPWEQWWC]-NH2 [VMT-FAP-2-73]	3.61 nM
CC(=O)N[C@@H](CO)C(=O)N[C@H]1CSCc2ccccc2CSC[C@@H](C(N)=O)NC(=O)[C@H](Cc2c[nH]c3ccccc23)NC(=O)[C@H](Cc2c[nH]c3ccccc23)NC(=O)[C@H](CCC(N)=O)NC(=O)[C@H](CCC(=O)O)NC(=O)[C@H](Cc2ccccc2)NC(=O)[C@@H]2CCCN2C(=O)[C@H]([C@@H](C)O)NC1=O [VMT-FAP-2-12, Ac-S[C(oXdB)TPFEQWWC]-NH2] (Ac-SCTPFEQWWC-NH2; linker 2-10 via oXylylene)	0.55 nM
